Laboratory results published in US6384051B1, “Method of treating or inhibiting colonic polyps” (American Cyanamid Company, priority 2000, dated 2002).
Counter-ions that a name gives are not always drawn.

Row | Structure (SMILES) | melting point
1 | COc1cc2ncc(C#N)c(Oc3cccc(Br)c3)c2cc1OC [Example 49, 4-(3-Bromophenoxy)-6,7-dimethoxy-3-quinolinecarbonitrile] | 187 to 190 °C
2 | COc1cc2c(Nc3cccc(N(C)C)c3)c(C#N)cnc2c(OC)c1OC [Example 232, 4-(3-Dimethylamino-phenylamino)-6,7,8-trimethoxy-quinoline-3-carbonitrile] | 142 to 144 °C
3 | CN(C)CC#CC(=O)Nc1ccc2ncc(C#N)c(Nc3ccc(F)c(Cl)c3)c2c1 [Example 193, N-[4-[(3-Chloro-4-fluorophenyl)amino]-3-cyano-6-quinolinyl]-4-dimethylamino-2-butynamide] | 225 °C (dec.)
4 | COc1cc2c(Nc3cc(O)c(Cl)cc3F)c(C#N)cnc2c(OC)c1OC [Example 244, 4-(4-Chloro-2-fluoro-5-hydroxy-phenylamino)-6,7,8-trimethoxy-quinoline-3-carbonitrile] | 223 to 225 °C
5 | COc1ccc2ncc(C#N)c(Nc3ccc(Cl)cc3F)c2c1 [Example 283, 4-(4-Chloro-2-fluoro-phenylamino)-6-methoxy-quinoline-3-carbonitrile] | > 250 °C
6 | N#Cc1cnc2cc3c(cc2c1Nc1cccc(Br)c1)OCO3 [Example 40, 8-[(3-Bromophenyl)amino]-[1,3]-dioxolo[4,5-g]quinoline-7-carbonitrile] | 201 to 205 °C
7 | COc1cccc2c(Nc3ccc(Cl)cc3F)c(C#N)cnc12 [Example 275, 4-(4-Chloro-2-fluoro-phenylamino)-8-methoxy-quinoline-3-carbonitrile] | 127 °C (dec.)
8 | CCN(CC)CC#CC(=O)Nc1ccc2ncc(C#N)c(Nc3ccc(F)c(Cl)c3)c2c1 [Example 189, N-[4-[(3-Chloro-4-fluorophenyl)amino]-3-cyano-6-quinolinyl]-4-diethylamino-2-butynamide] | 117 to 120 °C
9 | CCN1CCN(CC#CC(=O)Nc2ccc3ncc(C#N)c(Nc4cccc(Br)c4)c3c2)CC1 [Example 188, N-[4-[(3-Bromophenyl)amino]-3-cyano-6-quinolinyl]-4-(N-ethylpiperazino)-2-butynamide] | 161 °C (dec.)
10 | N#Cc1cnc2ccc(NC(=O)C#CCO)cc2c1Nc1cccc(Br)c1 [Example 57, N-[4-[(3-Bromophenyl)amino]-3-cyano-6-quinolinyl]-4-hydroxy-2-butynamide] | 253 to 254 °C (dec.)
11 | COc1ccc(OC)c2c(Nc3cc(O)c(Cl)cc3F)c(C#N)cnc12 [Example 243, 4-(4-Chloro-2-fluoro-5-hydroxy-phenylamino)-5,8-dimethoxy-quinoline-3-carbonitrile] | 240 °C (dec.)
12 | COCC#CC(=O)Nc1ccc2ncc(C#N)c(Nc3cccc(Br)c3)c2c1 [Example 330, N-[4-[(3-Bromophenyl)amino]-3-cyano-6-quinolinyl]-4-methoxy-2-butynamide] | 197 °C (dec.)
13 | N#Cc1cnc2ccc(N)cc2c1Nc1ccc(F)c(Br)c1 [Example 196, 6-amino-4-[(3-Bromo-4-fluorophenyl)amino]-3-quinolinecarbonitrile] | 210 to 212 °C
14 | COc1cc2c(Nc3ccc(Cl)cc3F)c(C#N)cnc2cc1OCc1ccccc1 (as salt: hydrochloride) [Example 322, 7-Benzyloxy-4-(4-chloro-2-fluoro-phenylamino)-6-methoxy-quinoline-3-carbonitrile] | 241 to 243 °C
15 | COc1cc2c(Nc3ccc(O)cc3C)c(C#N)cnc2cc1OCCCN1CCOCC1 [Example 312, 4-(4-Hydroxy-2-methyl-phenylamino)-6-methoxy-7-(3-morpholin-4yl-propoxy)-quinoline-3-carbonitrile] | 120 to 126 °C
16 | COc1ccc(OC)c2c(Nc3cccc(Br)c3)c(C#N)cnc12 [Example 240, 4-(3-Bromo-phenylamino)-5,8-dimethoxy-quinoline-3-carbonitrile] | 72 to 74 °C
17 | COc1ccc(OC)c2c(Nc3ccc(C)c(O)c3)c(C#N)cnc12 [Example 239, 4-(3-Hydroxy-4-methyl-phenylamino)-5,8-dimethoxy-quinoline-3-carbonitrile] | 240 to 242 °C
18 | CN(C)CC#CC(=O)Nc1ccc2ncc(C#N)c(Nc3cccc(Br)c3)c2c1 [Example 59, N-[4-[(3-Bromophenyl)amino]-3-cyano-6-quinolinyl]-4-dimethylamino-2-butynamide] | 114 to 118 °C
19 | CN(C)CC#CC(=O)Nc1ccc2ncc(C#N)c(Nc3ccc(F)c(Br)c3)c2c1 [Example 197, N-[4-[(3-Bromo-4-fluorophenyl)amino]-3-cyano-6-quinolinyl]-4-dimethylamino-2-butynamide] | 228 to 231 °C
20 | COc1cccc2c(Nc3cccc(Br)c3)c(C#N)cnc12 [Example 274, 4-[(3-Bromophenyl)amino]-8-methoxy-3-quinolinecarbonitrile] | 210 to 212 °C
21 | COCC#CC(=O)Nc1ccc2ncc(C#N)c(Nc3cccc(Br)c3)c2c1 [Example 60, N-[4-[(3-Bromophenyl)amino]-3-cyano-6-quinolinyl]-4-methoxy-2-butynamide] | 198 to 202 °C (dec.)
22 | COc1ccc(Nc2c(C#N)cnc3c(OC)cccc23)cc1O [Example 279, 4-(3-Hydroxy-4-methoxy-phenylamino)-8-methoxy-quinoline-3-carbonitrile] | 138 to 140 °C (dec.)
23 | COc1ccc2c(Nc3ccc(C)c(O)c3)c(C#N)cnc2c1 [Example 281, 4-(3-Hydroxy-4-methyl-phenylamino)-7-methoxy-quinoline-3-carbonitrile] | > 250 °C
24 | CN1CCN(CC#CC(=O)Nc2ccc3ncc(C#N)c(Nc4cccc(Br)c4)c3c2)CC1 [Example 190, N-[4-[(3-Bromophenyl)amino]-3-cyano-6-quinolinyl]-4-(N-methylpiperazino)-2-butynamide] | 190 °C (dec.)
25 | COc1cccc2c(Nc3c(F)cc(F)cc3F)c(C#N)cnc12 [Example 280, 8-Methoxy-4-(2,4,6-trifluoro-phenylamino)-quinoline-3-carbonitrile] | 297 °C (dec.)
26 | CN(C)CC#CC(=O)Nc1ccc2ncc(C#N)c(Nc3cccc(Br)c3)c2c1 [Example 329, N-[4-[(3-Bromophenyl)amino]-3-cyano-6-quinolinyl]-4-dimethylamino-2-butynamide] | 180 °C (dec.)

Now from value to compound:

Row | melting point | Structure (SMILES)
27 | 200 to 202 °C | COc1ccc(Cl)cc1Nc1c(C#N)cnc2cc(OC)c(OC)cc12 [Example 372, 4-(5-Chloro-2-methoxyphenylamino)-6,7-dimethoxy-quinoline-3-carbonitrile]
28 | > 250 °C | COc1cc2ncc(C#N)c(Nc3ccc(O)cc3O)c2cc1OC [Example 300, 4-(2,4-Dihydroxy-phenylamino)-6,7-dimethoxy-quinoline-3-carbonitrile]
29 | > 250 °C | COc1cc2ncc(C#N)c(Nc3ccc(C)c(Cl)c3)c2cc1OC [Example 370, 4-(3-Chloro-4-methyl-phenylamino)-6,7-dimethoxy-quinoline-3-carbonitrile]
30 | 190 to 193 °C | COc1cc2ncc(C#N)c(Nc3cccc(C(F)(F)F)c3)c2cc1OC [Example 42, 4-[(3-Trifluoromethylphenyl)amino]-6,7-dimethoxy-3-quinolinecarbonitrile]
31 | 227 to 229 °C | COc1cc2ncc(C#N)c(Nc3ccc(Cl)cc3C)c2cc1OC [Example 336, 4-(4-Chloro-2-methylphenylamino)-6,7-dimethoxyquinoline-3-carbonitrile]
32 | > 250 °C | COc1cc2ncc(C#N)c(Nc3cc(Cl)c(O)c(Cl)c3)c2cc1OC [Example 286, 4-(3,5-Dichloro-4-hydroxy-phenylamino)-6,7-dimethoxy-quinoline-3-carbonitrile]
33 | 265 to 267 °C | COc1cc2ncc(C#N)c(Nc3ccc(Cl)c(C(F)(F)F)c3)c2cc1OC [Example 338, 4-(4-Chloro-3-trifluoromethylphenylamino)-6,7-dimethoxyquinoline-3-carbonitrile]
34 | > 131 °C (dec.) | COc1ccc(Nc2c(C#N)cnc3cc(OC)c(OC)cc23)c(C)c1 [Example 367, 6,7-Dimethoxy-4-(4-methoxy-2-methyl-phenylamino)-quinoline-3-carbonitrile]
35 | 292 to 294 °C | COc1cc2ncc(C#N)c(Nc3ccc(C)c(Br)c3)c2cc1OC [Example 248, 4-(3-Bromo-4-methyl-phenylamino)-6,7-dimethoxy-quinoline-3-carbonitrile]
36 | 230 to 232 °C | COc1cc2ncc(C#N)c(Nc3ccc(O)c(Cl)c3)c2cc1OC [Example 249, 4-(3-Chloro-4-hydroxy-phenylamino)-6,7-dimethoxy-quinoline-3-carbonitrile]
37 | > 250 °C | COc1cc2ncc(C#N)c(Nc3ccc(O)cc3Cl)c2cc1OC [Example 296, 4-(2-Chloro-4-hydroxy-phenylamino)-6,7-dimethoxy-quinoline-3-carbonitrile]
38 | 246 to 249 °C | COc1cc2ncc(C#N)c(Nc3cccc(N(C)C)c3)c2cc1OC [Example 366, 4-(3-Dimethylamino-phenylamino)-6,7-dimethoxy-quinoline-3-carbonitrile]
39 | 208 to 210 °C | COc1cc2ncc(C#N)c(Nc3ccc(CCO)cc3)c2cc1OC [Example 299, 4-[4-(2-Hydroxy-ethyl)-phenylamino]-6,7-dimethoxy-quinoline-3-carbonitrile]
40 | 282 to 285 °C | COc1cc2ncc(C#N)c(Nc3ccc(F)cc3)c2cc1OC [Example 46, 4-[(4-Fluorophenyl)amino]-6,7-dimethoxy-3-quinolinecarbonitrile]
41 | 198 to 200 °C | COc1cc2ncc(C#N)c(Nc3cc(C)ccc3O)c2cc1OC [Example 295, 4-(2-Hydroxy-5-methyl-phenylamino)-6,7-dimethoxy-quinoline-3-carbonitrile]
42 | > 250 °C | COc1cc2ncc(C#N)c(Nc3cc(Br)c(O)c(Br)c3)c2cc1OC [Example 291, 4-(3,5-Dibromo-4-hydroxy-phenylamino)-6,7-dimethoxy-quinoline-3-carbonitrile]
43 | 242 to 245 °C | COc1cc2ncc(C#N)c(Nc3cccc(C(=O)O)c3C)c2cc1OC [Example 368, 3-(3-Cyano-6,7-dimethoxy-quinolin-4-ylamino) -2-methyl-benzoic acid]
